# Data taken from US20030045582A1, “Method for treating hyperglycemia” (Alteon, Inc., priority 2000, published 2003).
# What was measured:
# [1] = system: patients suffering from Type I diabetes with overt diabetic nephropathy; assay: Multicenter, randomized, double-blind, placebo-controlled study: time to doubling of baseline serum creatinine; format: in vivo, human
# Experimental: (§1) Renal function was measured every three months using serum creatinine levels, and creatinine clearance rates. In addition, the glomerular filtration rate was measured at entry and every six months. Study participants were treated at one of two dosage levels, (150 mg and 300 mg B.I.D.).
# Time to doubling of baseline serum creatinine was measured. Study participants were also treated with standard measures for blood pressure control, and diabetes management, including insulin treatment, diet, and exercise. Serum creatinine levels were made at baseline and randomization visits, at the end of weeks 1-6, the end of month 2, the end of month 3, and then every 3 months for the remainder of the study. “Baseline serum creatinine” was the mean of the levels at the baseline and randomization visits. If the level at any subsequent visit was at least two times the baseline, and was confirmed by a second measurement, the patient was considered to have experienced a doubling of baseline serum creatinine. Serum creatinine levels were determined by a clinical laboratory (SciCor Inc., 8211 SciCor Drive, Indianapolis, Ind. 46214-2985).
# [2] = system: patients suffering from Type I diabetes with overt diabetic nephropathy; assay: Same clinical study: 24 hour urinary protein excretion; format: in vivo, human
# Experimental: as §1
# (FIG. 1). The reduction was generally first observed at the first post-randomization evaluation (at three months) and increased in magnitude over the duration of the study. […] (FIG. 2).
# [3] = system: patients suffering from Type I diabetes with overt diabetic nephropathy; assay: Same clinical study: progression of diabetic retinopathy, three or more steps in ETDRS scale; format: in vivo, human
# diabetic rats = settings: cited from earlier work
# kidney = settings: in vivo; cited from earlier work
# [4] = system: streptozotocin-diabetic rat; settings: streptozotocin-diabetic rat model; cited from earlier work
# [5] = system: red blood cell (RBC) deformability; settings: in vivo; cited from earlier work
smiles,measurement,setting,value
"N=C(N)NN [Pimagedine, aminoguanidine]",Patients with adjudicated doubling of serum creatinine (%),"[1]; Baseline serum creatinine less than 1.5 mg/dL, Combined",(10%)
same,"Odds ratio, doubling of serum creatinine","[1]; Baseline serum creatinine less than 1.5 mg/dL, Combined versus placebo",0.59
same,Patients with adjudicated doubling of serum creatinine (%),"[1]; Baseline serum creatinine less than 1.5 mg/dL, High Dose",(10%)
same,"Odds ratio, doubling of serum creatinine","[1]; Baseline serum creatinine less than 1.5 mg/dL, High Dose versus placebo",0.52
same,Patients with adjudicated doubling of serum creatinine (%),"[1]; Baseline serum creatinine less than 1.5 mg/dL, Low Dose",(11%)
same,"Odds ratio, doubling of serum creatinine","[1]; Baseline serum creatinine less than 1.5 mg/dL, Low Dose versus placebo",0.64
same,Patients with adjudicated doubling of serum creatinine (%),[1]; Combined doses,(20%)
same,"Odds ratio, doubling of serum creatinine",[1]; Combined versus placebo,0.73
same,Patients with adjudicated doubling of serum creatinine (%),"[1]; High Dose (300 mg B.I.D.), listed as pimagendine",20%
same,"Odds ratio, doubling of serum creatinine",[1]; High Dose versus placebo,0.73
same,Patients with adjudicated doubling of serum creatinine (%),[1]; Low Dose (150 mg B.I.D.),(20%)
same,Patients with adjudicated doubling of serum creatinine (%),"[1]; Low Dose (150 mg B.I.D.), listed as pimagendine",20%
same,"Odds ratio, doubling of serum creatinine",[1]; Low Dose versus placebo,0.72
same,Reduction in the risk of doubling serum creatinine,"[1]; all patients, versus placebo",29%
same,Patients with adjudicated doubling of serum creatinine (%),[1]; high dose (300 mg B.I.D.),(20%)
same,Reduction of the risk of doubling serum creatinine,[1]; patients with a baseline serum creatinine of less than 1.5 mg/dL,63%
same,24 hour urinary protein excretion,[2]; high dose (300 mg B.I.D.),statistically significant reductions
same,24 hour urinary protein excretion,[2]; low dose (150 mg B.I.D.),statistically significant reductions
same,Effect on proteinuria,[2]; patients with a baseline serum creatinine of less than 1.5 mg/dL compared with whole population,greater effect
same,% of patients with a ≧ 3 step progression in ETDRS score,[3]; Combined,(10%)
same,"Logistic regression model odds ratio, ≧ 3 step retinopathy progression",[3]; Combined versus placebo,0.53
same,% of patients with a ≧ 3 step progression in ETDRS score,[3]; High Dose,(8%)
same,"Logistic regression model odds ratio, ≧ 3 step retinopathy progression",[3]; High Dose versus placebo,0.68
same,% of patients with a ≧ 3 step progression in ETDRS score,[3]; Low Dose,(11%)
same,"Logistic regression model odds ratio, ≧ 3 step retinopathy progression",[3]; Low Dose versus placebo,0.58
same,Incidence of progression of retinopathy from baseline to endpoint,[3]; progression of three or more steps in ETDRS scale,decreased
same,Aortic wall protein cross-linking,diabetic rats,diminishes
same,Immunoglobulin trapping in the kidney,kidney,reduction
same,Increased glomerular basement membrane thickness,[4],prevented
same,Diabetes-induced changes in the deformability of red blood cells,[5],prevent
